Columns and labels:
NarL / PdcuS promoter = conditions: PdcuS promoter repressed by phosphorylated NarL, sfGFP; cited from earlier work
[1] = tested on: BAD_0569/BAD_0568-CcaR TCS; conditions: E. coli expressing BAD_0569 and BAD_0568-CcaR, sfGFP from PcpcG2; panel of over 40 gut chemicals
From the text: Briefly, the wild type BAD_0569 SK of Bifidobacterium adolescent was expressed in E. coli. A modified cognate response regulator BAD_0568 was simultaneously expressed in E. coli, wherein the native DBD from the Bifidobacterium adolescentis RR was replaced with that of the DBD from the well-characterized OmpR-PhoB family RR CcaR. When phosphorylated, native CcaR activates transcription from PcpcG2, or its derivatives. A superfolder GFP reporter gene (a.k.a. GFP) was expressed from PcpcG2 in the same E. coli. Anydrotetracyline (aTc) induces expression of the BAD_0568-CcaR hybrid, which activates PcpcG2 transcription and thus GFP expression.
We then tested E. coli expressing the hybrid BAD_0569/8 TCS (i.e. BAD_0569 and BAD_0568-CcaR with sfGFP expressed from PcpcG2) in the presence of over 40 chemicals previously found to be enriched in the large intestines of germ-free mice made to carry gut bacteria of obese humans, but not found to be enriched in those mice carrying the gut bacteria of their lean twins.

Structure (SMILES)	sensitivity of the sensor (NarL / PdcuS promoter)	response of rewired BAD_0569/8 TCS (sfGFP reporter) to the chemical [1]
O=[N+]([O-])O [nitrate]	The sensitivity of the sensor is in the sub-mM to mM range for nitrate.	–
CSCC[C@H](N)C(=O)O [methionine]	–	largest response

Source: patent US10793840B2, “Identifying ligands for bacterial sensors” (William Marsh Rice University, priority 2015, dated 2020)
